Test results as given in the NIST ThermoML archive (doi:10.1016/j.jct.2008.01.012).

Legend:
[1] = Liquid, Diaphragm manometer
[2] = excess molar enthalpy (molar enthalpy of mixing); xn = mol fraction of the nth substance listed; settings: 303.15 K, 101 kPa, Liquid, Calvet calorimetry

CCN(CC)CCCN [N,N-diethylpropane-1,3-diamine]
[1]
Settings | vapor or sublimation pressure [kPa]
303.15 K | 0.31
313.15 K | 0.586
323.15 K | 1.053
333.15 K | 1.809
343.15 K | 2.987

CCN(CC)CCCN [N,N-diethylpropane-1,3-diamine] + CCCCCC
[2]
Settings | excess molar enthalpy [kcal/mol]
x1 = 0.0798 | 0.107
x1 = 0.1311 | 0.152
x1 = 0.212 | 0.202
x1 = 0.2521 | 0.215
x1 = 0.3083 | 0.232
x1 = 0.3089 | 0.232
x1 = 0.3472 | 0.239
x1 = 0.3858 | 0.24
x1 = 0.4188 | 0.241
x1 = 0.4682 | 0.241
x1 = 0.4835 | 0.241
x1 = 0.5079 | 0.239
x1 = 0.5984 | 0.229
x1 = 0.7107 | 0.194
x1 = 0.802 | 0.146
x1 = 0.8762 | 0.0978

CCN(CC)CCCN [N,N-diethylpropane-1,3-diamine] + CCCCCCC
[2]
Settings | excess molar enthalpy [kcal/mol]
x1 = 0.0503 | 0.0645
x1 = 0.1038 | 0.121
x1 = 0.1491 | 0.16
x1 = 0.2452 | 0.217
x1 = 0.3961 | 0.255
x1 = 0.4516 | 0.258
x1 = 0.5013 | 0.255
x1 = 0.5973 | 0.235
x1 = 0.7014 | 0.199
x1 = 0.7987 | 0.149
x1 = 0.8974 | 0.0834

CCN(CC)CCCN [N,N-diethylpropane-1,3-diamine] + CCCCCCCCCCCC
[2]
Settings | excess molar enthalpy [kcal/mol]
x1 = 0.0601 | 0.0915
x1 = 0.1207 | 0.161
x1 = 0.2122 | 0.242
x1 = 0.3099 | 0.298
x1 = 0.4093 | 0.325
x1 = 0.4522 | 0.328
x1 = 0.5054 | 0.327
x1 = 0.6037 | 0.312
x1 = 0.71 | 0.267
x1 = 0.8047 | 0.207
x1 = 0.9021 | 0.119
x1 = 0.9498 | 0.0648

CCCCCCC [heptane]
[1]
Settings | vapor or sublimation pressure [kPa]
303.15 K | 7.786
313.15 K | 12.32
323.15 K | 18.85
333.15 K | 27.98
343.15 K | 40.43
